Results: patent publication US9439975B2, “Small efficient cell penetrating peptides derived from the scorpion toxin maurocalcine” (Commissariat A L'Energie Atomique Et Aux Energies …, priority 2011, dated 2016)
Square brackets hold non-standard residues; d marks the D form. Primed or numbered codes have the meaning given here. Ends that are not written are not given here. Cy5″ = Cy5 dye, coupled as maleimide to the C-terminal Cys; Abu = CC[C@H](N)C(=O)O; Cy5 = Cy5 label

Assays:
proteoglycans = details: cited from earlier work
cells = details: cited from earlier work
[1] = upon intravenous injection; cited from earlier work
[2] = in vitro and in vivo; cited from earlier work
[3] = target: ryanodine receptor type 1 (RyR1) (Oryctolagus cuniculus, UniProt P11716); details: earlier reports; cited from earlier work
Sequence of ryanodine receptor type 1 (RyR1) (P11716 whole entry): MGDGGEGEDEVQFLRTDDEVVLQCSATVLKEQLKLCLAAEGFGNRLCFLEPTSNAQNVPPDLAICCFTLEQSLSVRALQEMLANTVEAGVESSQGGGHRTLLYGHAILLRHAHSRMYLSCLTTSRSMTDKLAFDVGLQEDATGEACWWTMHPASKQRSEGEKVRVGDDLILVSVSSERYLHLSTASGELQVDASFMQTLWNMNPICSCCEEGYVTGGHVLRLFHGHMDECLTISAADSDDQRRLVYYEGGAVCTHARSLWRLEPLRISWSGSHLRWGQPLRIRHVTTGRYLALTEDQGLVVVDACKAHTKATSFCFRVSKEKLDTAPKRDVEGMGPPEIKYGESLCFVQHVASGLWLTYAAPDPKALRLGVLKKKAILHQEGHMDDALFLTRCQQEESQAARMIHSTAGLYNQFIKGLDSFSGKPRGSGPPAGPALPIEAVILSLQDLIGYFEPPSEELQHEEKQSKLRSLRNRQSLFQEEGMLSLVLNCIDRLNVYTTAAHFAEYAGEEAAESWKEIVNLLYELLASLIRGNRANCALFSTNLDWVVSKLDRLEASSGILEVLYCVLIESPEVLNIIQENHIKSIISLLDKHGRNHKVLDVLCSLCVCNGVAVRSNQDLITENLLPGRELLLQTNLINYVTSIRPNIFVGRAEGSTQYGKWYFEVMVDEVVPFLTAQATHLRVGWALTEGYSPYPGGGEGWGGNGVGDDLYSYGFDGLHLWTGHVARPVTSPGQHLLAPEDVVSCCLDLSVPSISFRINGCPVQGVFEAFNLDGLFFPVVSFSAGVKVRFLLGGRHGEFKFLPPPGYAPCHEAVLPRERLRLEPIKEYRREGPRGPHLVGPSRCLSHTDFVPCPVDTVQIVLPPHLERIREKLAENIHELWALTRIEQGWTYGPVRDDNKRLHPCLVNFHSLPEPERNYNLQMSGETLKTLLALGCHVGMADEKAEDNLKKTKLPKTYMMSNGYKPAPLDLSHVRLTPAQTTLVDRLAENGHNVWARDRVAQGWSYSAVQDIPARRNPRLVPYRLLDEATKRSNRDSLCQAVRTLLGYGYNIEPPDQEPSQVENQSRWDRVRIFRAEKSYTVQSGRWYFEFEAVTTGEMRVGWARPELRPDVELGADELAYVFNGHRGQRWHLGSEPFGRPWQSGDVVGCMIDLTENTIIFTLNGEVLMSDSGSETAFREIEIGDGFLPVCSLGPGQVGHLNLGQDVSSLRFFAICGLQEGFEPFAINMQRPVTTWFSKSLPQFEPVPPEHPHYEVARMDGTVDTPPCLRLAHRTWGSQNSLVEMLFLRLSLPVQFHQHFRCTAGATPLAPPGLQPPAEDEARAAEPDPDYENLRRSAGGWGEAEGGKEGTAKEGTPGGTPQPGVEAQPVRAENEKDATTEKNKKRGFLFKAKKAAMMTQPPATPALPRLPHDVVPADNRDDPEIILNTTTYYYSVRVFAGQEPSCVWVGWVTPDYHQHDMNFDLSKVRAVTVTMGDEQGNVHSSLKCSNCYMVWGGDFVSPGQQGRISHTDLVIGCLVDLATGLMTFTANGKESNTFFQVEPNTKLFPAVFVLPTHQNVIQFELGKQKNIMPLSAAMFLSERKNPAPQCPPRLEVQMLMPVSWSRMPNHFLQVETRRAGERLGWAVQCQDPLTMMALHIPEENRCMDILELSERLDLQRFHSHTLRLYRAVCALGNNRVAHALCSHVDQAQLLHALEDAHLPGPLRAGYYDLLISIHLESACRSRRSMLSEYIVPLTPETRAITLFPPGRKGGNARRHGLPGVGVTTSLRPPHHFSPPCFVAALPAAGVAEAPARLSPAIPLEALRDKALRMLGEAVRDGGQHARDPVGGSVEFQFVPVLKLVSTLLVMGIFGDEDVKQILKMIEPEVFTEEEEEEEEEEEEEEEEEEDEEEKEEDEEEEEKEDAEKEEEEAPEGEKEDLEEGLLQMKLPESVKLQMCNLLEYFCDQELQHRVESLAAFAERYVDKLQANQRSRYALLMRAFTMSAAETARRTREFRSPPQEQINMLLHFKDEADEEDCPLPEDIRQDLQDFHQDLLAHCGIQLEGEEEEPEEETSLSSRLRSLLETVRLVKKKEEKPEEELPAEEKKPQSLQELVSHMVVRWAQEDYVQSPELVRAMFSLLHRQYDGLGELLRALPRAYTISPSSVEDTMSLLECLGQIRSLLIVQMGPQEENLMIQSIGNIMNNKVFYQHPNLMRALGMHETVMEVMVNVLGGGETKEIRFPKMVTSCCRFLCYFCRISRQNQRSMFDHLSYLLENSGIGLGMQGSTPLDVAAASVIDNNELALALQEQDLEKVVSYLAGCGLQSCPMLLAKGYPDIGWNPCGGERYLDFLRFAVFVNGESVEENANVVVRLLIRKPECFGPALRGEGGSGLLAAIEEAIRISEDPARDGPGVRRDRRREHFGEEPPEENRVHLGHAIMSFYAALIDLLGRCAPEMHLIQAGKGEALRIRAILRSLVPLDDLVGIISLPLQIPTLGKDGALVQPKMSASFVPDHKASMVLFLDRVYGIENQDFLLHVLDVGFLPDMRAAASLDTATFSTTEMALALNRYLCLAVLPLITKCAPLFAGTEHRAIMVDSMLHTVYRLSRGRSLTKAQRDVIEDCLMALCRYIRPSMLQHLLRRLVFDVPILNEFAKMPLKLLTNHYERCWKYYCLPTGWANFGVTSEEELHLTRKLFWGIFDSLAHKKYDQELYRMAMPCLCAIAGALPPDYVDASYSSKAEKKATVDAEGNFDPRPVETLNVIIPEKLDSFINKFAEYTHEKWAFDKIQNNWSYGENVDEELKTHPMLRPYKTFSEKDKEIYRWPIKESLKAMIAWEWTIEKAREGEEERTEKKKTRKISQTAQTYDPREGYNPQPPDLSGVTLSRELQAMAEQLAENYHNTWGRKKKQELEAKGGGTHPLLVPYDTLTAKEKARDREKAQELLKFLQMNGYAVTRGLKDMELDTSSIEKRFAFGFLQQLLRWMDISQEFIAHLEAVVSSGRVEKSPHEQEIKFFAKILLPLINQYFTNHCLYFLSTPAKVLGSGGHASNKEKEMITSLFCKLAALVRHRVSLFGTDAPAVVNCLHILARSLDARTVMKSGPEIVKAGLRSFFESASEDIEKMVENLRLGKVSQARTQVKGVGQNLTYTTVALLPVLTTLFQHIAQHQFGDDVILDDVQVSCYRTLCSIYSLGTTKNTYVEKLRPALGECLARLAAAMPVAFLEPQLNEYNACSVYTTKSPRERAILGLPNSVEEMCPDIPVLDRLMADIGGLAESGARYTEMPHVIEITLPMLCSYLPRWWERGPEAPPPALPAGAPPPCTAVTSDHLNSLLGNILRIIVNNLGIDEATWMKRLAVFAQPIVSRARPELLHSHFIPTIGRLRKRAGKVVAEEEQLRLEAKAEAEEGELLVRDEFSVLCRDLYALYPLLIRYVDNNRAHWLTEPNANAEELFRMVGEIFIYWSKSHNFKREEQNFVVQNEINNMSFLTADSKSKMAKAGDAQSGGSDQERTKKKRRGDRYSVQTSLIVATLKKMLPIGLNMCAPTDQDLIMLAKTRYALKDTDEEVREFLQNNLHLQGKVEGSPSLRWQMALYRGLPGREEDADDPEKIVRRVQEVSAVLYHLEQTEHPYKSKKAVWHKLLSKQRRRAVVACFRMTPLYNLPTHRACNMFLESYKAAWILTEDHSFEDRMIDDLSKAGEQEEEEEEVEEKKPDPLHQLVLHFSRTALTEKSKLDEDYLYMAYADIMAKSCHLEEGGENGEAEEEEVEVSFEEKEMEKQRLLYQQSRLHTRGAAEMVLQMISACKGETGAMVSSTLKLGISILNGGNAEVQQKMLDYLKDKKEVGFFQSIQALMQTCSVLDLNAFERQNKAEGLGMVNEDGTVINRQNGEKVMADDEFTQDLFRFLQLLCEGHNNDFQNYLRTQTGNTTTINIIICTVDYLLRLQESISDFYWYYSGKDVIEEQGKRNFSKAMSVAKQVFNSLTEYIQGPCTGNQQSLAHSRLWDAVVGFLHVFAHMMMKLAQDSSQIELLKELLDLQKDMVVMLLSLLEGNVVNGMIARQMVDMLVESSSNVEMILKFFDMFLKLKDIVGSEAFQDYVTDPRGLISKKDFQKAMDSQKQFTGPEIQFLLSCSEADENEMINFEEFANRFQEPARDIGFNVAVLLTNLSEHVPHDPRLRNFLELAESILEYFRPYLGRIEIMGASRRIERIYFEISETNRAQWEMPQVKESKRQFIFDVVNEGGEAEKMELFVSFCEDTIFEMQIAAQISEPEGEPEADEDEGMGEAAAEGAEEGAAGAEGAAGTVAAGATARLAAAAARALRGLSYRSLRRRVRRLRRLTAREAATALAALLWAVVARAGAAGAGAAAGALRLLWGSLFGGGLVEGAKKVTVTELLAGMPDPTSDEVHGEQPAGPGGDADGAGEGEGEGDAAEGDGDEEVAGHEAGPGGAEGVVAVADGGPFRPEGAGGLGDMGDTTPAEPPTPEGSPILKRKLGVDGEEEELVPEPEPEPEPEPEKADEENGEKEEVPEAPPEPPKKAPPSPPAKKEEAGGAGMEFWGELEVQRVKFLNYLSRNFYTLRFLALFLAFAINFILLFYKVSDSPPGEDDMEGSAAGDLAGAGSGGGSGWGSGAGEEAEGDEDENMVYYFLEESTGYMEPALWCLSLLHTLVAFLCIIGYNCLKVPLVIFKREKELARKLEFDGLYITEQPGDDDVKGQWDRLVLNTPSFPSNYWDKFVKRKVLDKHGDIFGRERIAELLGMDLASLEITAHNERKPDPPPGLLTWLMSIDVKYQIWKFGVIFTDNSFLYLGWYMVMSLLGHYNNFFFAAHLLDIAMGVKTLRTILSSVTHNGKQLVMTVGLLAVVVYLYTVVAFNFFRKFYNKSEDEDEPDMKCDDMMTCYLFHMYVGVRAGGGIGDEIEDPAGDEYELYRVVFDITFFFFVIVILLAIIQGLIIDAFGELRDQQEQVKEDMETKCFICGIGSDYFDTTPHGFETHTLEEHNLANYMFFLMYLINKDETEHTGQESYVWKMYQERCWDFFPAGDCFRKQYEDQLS

F98 rat glioma cell line = assay: Flow cytometry of dose-dependent cell penetration in F98 cells; type: cell-based; details: Cy5-labeled peptides
Description: (§1) Chinese hamster ovary (CHO) and F98 rat glioma cell lines (from ATCC) were maintained at 37° C. in 5% CO2 in F-12K nutrient medium (INVITROGEN) supplemented with 10% (v/v) heat-inactivated fetal bovine serum (INVITROGEN) and 10,000 units/ml streptomycine and penicillin (INVITROGEN) for the CHO cells, and 2% heat-inactivated fetal bovine serum and 100 units/ml streptomycine and penicillin for the F98 cells
(§2) CHO and F98 cells were incubated with various concentrations of Cy5-labeled peptides in F-12K culture medium without serum at 37° C. for 2 hrs. The cells were then washed with PBS to remove excess extracellular peptide and treated with 1 mg/ml trypsin (INVITROGEN) for 5 min at 37° C. to detach cells from the surface, and centrifuged at 200 g before suspension in PBS. For experiments with the macropinocytosis inhibitor, amiloride, CHO cells were initially washed with F-12K and preincubated for 30 min at 37° C. with 1 mM amiloride (SIGMA). The cells were then incubated for 2 hrs at 37° C. with 1 μM of the Cy5-MCa analogues. For all these experimental conditions, flow cytometry analyses were performed with live cells using a Becton Dickinson flow cytometer LSR II or an Accuri® flow cytometer (BD BIOSCIENCES). Data were obtained and analyzed using FCS express software (DE NOVO) or Accuri® proprietary software CFlow sampler. Live cells were gated by forward/side scattering from a total of 10,000 events.
(§3) Cy5-labeled peptides derived from MCaUF1-9 were synthesized and assayed by confocal microscopy or flow cytometry as described in example 1.

F98 cell line = assay: Confocal microscopy of peptide penetration in F98 cell line, comparison with Tat; type: cell-based, rat
Description: (§4) For analysis of the subcellular localization of MCa-Cy5 analogues in living cells, cell cultures were incubated with the fluorescent peptides for 2 hrs, and then washed with phosphate-buffered saline (PBS) alone. The plasma membrane was stained with 5 μg/ml rhodamine-conjugated concanavalin A (MOLECULAR PROBES) for 5 min. Cells were washed once more. Live cells were then immediately analyzed by confocal laser scanning microscopy using a Leica TCS-SPE operating system. Rhodamine (580 nm) and Cy5 (670 nm) were sequentially excited and emission fluorescence were collected in z-confocal planes of […] steps.
as §3

CHO cells [4] = assay: Flow cytometry of cell penetration of Cy5-labeled peptides in CHO cells; type: cell-based, Chinese hamster; details: for dose-dependent cell penetration: 2 hrs, concentrations up to 33 μM
Description: Each peptide was labeled with Cy5 according to the manufacturer's protocol (GE HEALTHCARE). Peptides were dissolved at 1 mg/ml in 0.1 M Na2CO3 buffer, pH 9.3. 300 μl of the solubilized peptides were added to Cy5-maleimide containing tubes. The mixtures were incubated during 2 hrs at room temperature and then purified by HPLC using an analytical Vydac C18 column. Elution of the Cy5-labeled peptides was performed with a 10-60% acetonitrile linear gradient containing 0.1% trifluoroacetic acid. The pure peak fractions were lyophilized and peptides quantified by UV spectrophotometer at 649 nm.
as §1, §2

CHO cells [5] = assay: MTT assay of cell viability; type: cell-based, Chinese hamster; details: 1 or 10 μM peptide, 24 hrs
Description: Cells were seeded into 96-well micro plates at a density of approximately 8×10^4 cells/well. […] Control wells containing cell culture medium alone or with cells, both without peptide addition, were included in each experiment. 0.1% saponin was used as toxic agent for comparison. The cells were then incubated with 3-(4, 5-dimethylthiazol-2-yl)-2, 5-diphenyl-tetrazolium bromide (MTT) for 30 min. Conversion of MTT into purple colored MTT formazan by the living cells indicates the extent of cell viability. The crystals were dissolved with dimethyl sulfoxide (DMSO) and the optical density was measured at 540 nm using a microplate reader (Biotek ELx-800, MANDEL SCIENTIFIC INC.) for quantification of cell viability. All assays were run in triplicates.

CHO cells [6] = assay: Confocal microscopy of subcellular localization of Cy5-labeled peptides in living CHO cells (rhodamine-concanavalin A membrane stain); type: cell-based, Chinese hamster; details: 2 hrs
Description: as §4

CHO cells [7] = assay: Amiloride sensitivity of peptide cell entry (macropinocytosis inhibition), flow cytometry; type: cell-based, Chinese hamster; details: for amiloride-sensitivity of cell penetration: Cy5 as cargo, flow cytometry (FIG. 4)
Description: as §2, with “For experiments with the macropinocytosis inhibitor, amiloride, CHO cells were initially washed with F-12K and preincubated for 30 min at 37° C. with 1 mM amiloride (SIGMA). The cells were then incubated for 2 hrs at 37° C. with 1 μM of the Cy5-MCa analogues.” left out

Q: Which results are given for GDCLPHLKLCKENKDCCSKKCKRRGTNIEKRCR [MCa]?
A: affinity of interaction with proteoglycans (proteoglycans): micromolar range; cell penetration efficiency (cells; earlier reports): penetrates into cells at very low concentrations; stability in vivo [1]: over 24 hrs; associated toxicity [2]: almost no associated toxicity; pharmacological action on / interaction with RyR1 [3]: exquisite pharmacological activator

Q: For “GDWLPHLKL (MCa1-9, C3W variant) [MCaUF1-9(W3)]”, which “cell penetration (CPP efficiency)” value (F98 rat glioma cell line) is on record?
A: ones of the best performing CPPs

Q: And the “penetration compared with 3 μM Tat” value (F98 cell line; 1 μM peptide)?
A: proved better CPP than Tat at 3 μM

Q: Which results are given for GDaLPHLKL (GD[Abu]LPHLKL) [MCaUF1-9]?
A: cell penetration (CPP efficiency) (F98 rat glioma cell line): ones of the best performing CPPs; dose-dependent cell penetration (CHO cells [4]): penetrates better at low concentration; penetration compared with 3 μM Tat (F98 cell line; 3 μM peptide): proved better CPP than Tat at 3 μM

Q: Which “penetration compared with 3 μM Tat” value (F98 cell line; 1 μM peptide) does the source give for “GDaWPHLKL (GD[Abu]WPHLKL) [MCaUF1-9(Abu3-W4)]” here?
A: proved better CPP than Tat at 3 μM

Q: For “KDaaSKKaKRRGC (KD[Abu][Abu]SKK[Abu]KRRGC) [MCaUF14-25-C]”, which “cell toxicity, comparison” value (CHO cells [5]) is on record?
A: slightly more toxic than 1 μM except for MCaUF14-25-C

Q: What does the source list for KDalKHLQR (KD[Abu]IKHLQR) [HadUF3-11]?
A: cell penetration (CPP efficiency) (F98 rat glioma cell line): ones of the best performing CPPs; cell penetration (CPP efficiency) (F98 rat glioma cell line; listed as HadUF3-9(Abu5)): perform better as CPP than the maurocalcine derived peptide MCaUF1-9(Abu3)

Q: For “MCaUF1-33-C-Cy5: MCaUF1-33-C (SEQ ID NO: 140) labeled with Cy5 on the C-terminal Cys (GD[Abu]LPHLKL[Abu]KENKD[Abu][Abu]SKK[Abu]KRRGTNIEKR[Abu]RC(Cy5))”, which “cell penetration (fluorescence accumulation within cells)” value (CHO cells [4]; 2 hrs incubation, 3 μM peptide, trypsin treatment) is on record?
A: penetrated efficiently within CHO cells

Q: And the dose-dependent cell penetration (CHO cells [4])?
A: least-performing cell penetrating peptide

Q: And the “Cy5-positive pixels rhodamine-positive (colocalization with the plasma membrane indicator)” value (CHO cells [6]; FIG. 3)?
A: 10.1±2.6%

Q: What about the “degree of accumulated cell fluorescence” value (CHO cells [6]; confocal microscopy) of the same substance?
A: penetrate the least

Q: And the “inhibition of cell penetration by amiloride” value (CHO cells [7]; 2 hrs, peptide with or without 5 mM amiloride (FIG. 4A))?
A: 19.6%

Q: Which “amiloride sensitivity of cell entry” value (cells; streptavidine as cargo, earlier studies) does the source give for “MCaUF1-33: unfolded full-length MCa, six Cys replaced by 2-aminobutyric acid (Abu) (GD[Abu]LPHLKL[Abu]KENKD[Abu][Abu]SKK[Abu]KRRGTNIEKR[Abu]R; not fully specified (residue 33))” here?
A: largely sensitive to amiloride

Q: And the “pharmacological action on / interaction with RyR1” value [3]?
A: unable to interact with MCa's target, the ryanodine receptor RyR1

Q: Which dose-dependent cell penetration (CHO cells [4]) does the source give for “MCaUF14-25-C-Cy5: MCaUF14-25-C (SEQ ID NO: 139) labeled with Cy5 (KD[Abu][Abu]SKK[Abu]KRRGC(Cy5″))” here?
A: yields the greatest fluorescence accumulation

Q: What about the “intracellular / plasma membrane distribution” value (CHO cells [6]; confocal microscopy) of the same substance?
A: sub-plasma membrane rim localization was more evident

Q: What about the “amiloride-sensitivity of cell penetration” value (CHO cells [7]) of the same substance?
A: higher amiloride-sensitivity than MCaUF1-33-C-Cy5

Q: Which results are given for “MCaUF18-33-C-Cy5: MCaUF18-33-C (SEQ ID NO: 137) labeled with Cy5 (SKK[Abu]KRRGTNIEKR[Abu]RC(Cy5″))”?
A: dose-dependent cell penetration (CHO cells [4]): performed drastically better than the other truncated peptides; Rhodamine-positive staining also Cy5-positive (pixels) (CHO cells [6]; Cy5/rhodamine colocalization): best performing; amiloride-sensitivity of cell penetration (CHO cells [7]): enhance rather than inhibit the cell penetration

Q: For “SEKDalKHLQR (SEKD[Abu]IKHLQR) [HadUF1-11]”, which “cell penetration (CPP efficiency)” value (F98 rat glioma cell line) is on record?
A: ones of the best performing CPPs

Q: What about the “cell penetration (CPP efficiency)” value (F98 rat glioma cell line; listed as HadUF1-11(Abu5)) of the same substance?
A: perform better as CPP than the maurocalcine derived peptide MCaUF1-9(Abu3)

Q: What about the “penetration compared with 3 μM Tat” value (F98 cell line; 1 μM peptide) of the same substance?
A: proved better CPP than Tat at 3 μM

Q: Which results are given for aLPHLKL ([Abu]LPHLKL) [MCaUF3-9]?
A: cell penetration (CPP efficiency) (F98 rat glioma cell line): ones of the best performing CPPs; cell penetration (CPP efficiency) (F98 rat glioma cell line; listed as MCaUF3-9(Abu3)): efficient CPP; penetration compared with 3 μM Tat (F98 cell line; 1 μM peptide): proved better CPP than Tat at 3 μM
